Experiments:
HS 578 T = test: NCI cytotoxicity screen, Breast Cancer panel; type: cell-based; settings: Homo sapiens; HS 578T; single dose 10 µM; negative = lethal; read-out: Percent growth inhibition
Experimental: (§1) Cytotoxicity was performed at National Cancer Institute (NCI), Bethesda, USA as per their protocols.

BT-549 = test: NCI cytotoxicity screen, Breast Cancer panel; type: cell-based; settings: Homo sapiens, single dose 10 µM, negative = lethal, read-out: Percent growth inhibition
Experimental: as §1

MDA-MB-468 = test: NCI cytotoxicity screen, Breast Cancer panel; type: cell-based; settings: Homo sapiens, single dose 10 µM, negative = lethal, read-out: Percent growth inhibition
Experimental: as §1

T-47D = test: NCI cytotoxicity screen, Breast Cancer panel; type: cell-based; settings: Homo sapiens, T47D, T-47D; single dose 10 µM; negative = lethal; read-out: Percent growth inhibition
Experimental: as §1

MCF7 = test: NCI cytotoxicity screen, Breast Cancer panel; type: cell-based; settings: Homo sapiens, single dose 10 µM, negative = lethal, read-out: Percent growth inhibition
Experimental: as §1

MDA-MB-231/ATCC = test: NCI cytotoxicity screen, Breast Cancer panel; type: cell-based; settings: Homo sapiens, MDA-MB-231, read-out: Percent growth inhibition
Experimental: as §1

NCI-H23 = test: NCI cytotoxicity screen, Non-Small Cell Lung Cancer panel; type: cell-based, human; settings: Homo sapiens, single dose 10 µM, negative = lethal, read-out: Percent growth inhibition
Experimental: as §1

NCI-522 = test: as above; type: cell-based, human; settings: Homo sapiens; NCI-522; single dose 10 µM; negative = lethal; read-out: Percent growth inhibition
Experimental: as §1

NCI-H226 = test: as above; type: cell-based, human; settings: Homo sapiens, single dose 10 µM, negative = lethal, read-out: Percent growth inhibition
Experimental: as §1

NCI-H322M = test: as above; type: cell-based, human; settings: Homo sapiens, single dose 10 µM, negative = lethal, read-out: Percent growth inhibition
Experimental: as §1

EXVX = test: as above; type: cell-based; settings: Homo sapiens; EXVX; single dose 10 µM; negative = lethal; read-out: Percent growth inhibition
Experimental: as §1

NCI-H460 = test: as above; type: cell-based; settings: Homo sapiens, single dose 10 µM, negative = lethal, read-out: Percent growth inhibition
Experimental: as §1

A549/ATCC = test: as above; type: cell-based; settings: Homo sapiens; A549/ATCC; single dose 10 µM; negative = lethal; read-out: Percent growth inhibition
Experimental: as §1

HOP-92 = test: as above; type: cell-based; settings: Homo sapiens, single dose 10 µM, negative = lethal, read-out: Percent growth inhibition
Experimental: as §1

HOP-62 = test: as above; type: cell-based; settings: Homo sapiens, single dose 10 µM, negative = lethal, read-out: Percent growth inhibition
Experimental: as §1

ACHN = test: NCI cytotoxicity screen, Renal Cancer panel; type: cell-based; settings: Homo sapiens, single dose 10 µM, negative = lethal, read-out: Percent growth inhibition
Experimental: as §1

RXF 393 = test: NCI cytotoxicity screen, Renal Cancer panel; type: cell-based; settings: Homo sapiens, single dose 10 µM, negative = lethal, read-out: Percent growth inhibition
Experimental: as §1

UO-31 = test: NCI cytotoxicity screen, Renal Cancer panel; type: cell-based; settings: Homo sapiens, single dose 10 µM, negative = lethal, read-out: Percent growth inhibition
Experimental: as §1

Structure (SMILES): c1ccc(-c2cn3ccnc3c(-c3ccc4c(c3)ncn4C3CCCCC3)n2)cc1 [Compound 9, 8-(1-cyclohexyl-1H-benzo[d]imidazol-5-yl)-6-phenylimidazo[1,2-a]pyrazine]
- inhibition at 10 µM (HS 578 T): < 1%
- inhibition at 10 µM (BT-549): 0.43%
- inhibition at 10 µM (MDA-MB-468): < 1%
- inhibition at 10 µM (T-47D): 25.5%
- inhibition at 10 µM (MCF7): 15.8%
- inhibition at 10 µM (MDA-MB-231/ATCC): 6.64%
- inhibition at 10 µM (NCI-H23): < 1%
- inhibition at 10 µM (NCI-522): 16.1%
- inhibition at 10 µM (NCI-H226): < 1%
- inhibition at 10 µM (NCI-H322M): 2.91%
- inhibition at 10 µM (EXVX): 2.51%
- inhibition at 10 µM (NCI-H460): < 1%
- inhibition at 10 µM (A549/ATCC): 9%
- inhibition at 10 µM (HOP-92): 10.9%
- inhibition at 10 µM (HOP-62): 12.9%
- inhibition at 10 µM (ACHN): < 1%
- inhibition at 10 µM (RXF 393): 23.3%
- inhibition at 10 µM (UO-31): 20.9%
- melting point: 195 to 198 °C

Structure (SMILES): COc1ccc(-c2cn3ccnc3c(-c3ccc4c(c3)ncn4C3CCCCC3)n2)cc1 [Compound 10, 8-(1-cyclohexyl-1H-benzo[d]imidazol-5-yl)-6-(4-methoxyphenyl)imidazo[1,2-a]pyrazine]
- inhibition at 10 µM (HS 578 T): 5.69%
- inhibition at 10 µM (BT-549): 8.55%
- inhibition at 10 µM (MDA-MB-468): < 1%
- inhibition at 10 µM (T-47D): 46.2%
- inhibition at 10 µM (MCF7): 19.7%
- inhibition at 10 µM (MDA-MB-231/ATCC): < 1%
- inhibition at 10 µM (NCI-H23): < 1%
- inhibition at 10 µM (NCI-522): 18.5%
- inhibition at 10 µM (NCI-H226): < 1%
- inhibition at 10 µM (NCI-H322M): < 1%
- inhibition at 10 µM (EXVX): 7.85%
- inhibition at 10 µM (NCI-H460): 2.9%
- inhibition at 10 µM (A549/ATCC): 7.33%
- inhibition at 10 µM (HOP-92): 17.4%
- inhibition at 10 µM (HOP-62): 3.33%
- inhibition at 10 µM (ACHN): 10.9%
- inhibition at 10 µM (RXF 393): < 1%
- inhibition at 10 µM (UO-31): 33.5%
- melting point: 196 to 199 °C

Structure (SMILES): c1ccc2c(-c3cn4ccnc4c(-c4ccc5c(c4)ncn5C4CCCCC4)n3)cccc2c1 [Compound 12, 8-(1-cyclohexyl-1H-benzo[d]imidazol-5-yl)-6-(naphthalen-1-yl)imidazo[1,2-a]pyrazine]
- inhibition at 10 µM (HS 578 T): 4.25%
- inhibition at 10 µM (BT-549): 1.57%
- inhibition at 10 µM (MDA-MB-468): 5.23%
- inhibition at 10 µM (T-47D): 22%
- inhibition at 10 µM (MCF7): 35.7%
- inhibition at 10 µM (MDA-MB-231/ATCC): 18.2%
- inhibition at 10 µM (NCI-H23): 9.02%
- inhibition at 10 µM (NCI-522): 33%
- inhibition at 10 µM (NCI-H226): 17.9%
- inhibition at 10 µM (NCI-H322M): 8.38%
- inhibition at 10 µM (EXVX): 29.6%
- inhibition at 10 µM (NCI-H460): 7.35%
- inhibition at 10 µM (A549/ATCC): 36.2%
- inhibition at 10 µM (HOP-62): 13.2%
- inhibition at 10 µM (ACHN): 8.22%
- inhibition at 10 µM (RXF 393): 0.15%
- inhibition at 10 µM (UO-31): 37.9%
- melting point: 199 to 202 °C

Structure (SMILES): Fc1ccc(-c2cn3ccnc3c(-c3ccc4c(c3)ncn4C3CCCCC3)n2)cc1 [Compound 13, 8-(1-cyclohexyl-1H-benzo[d]imidazol-5-yl)-6-(4-fluorophenyl)imidazo[1,2-a]pyrazine]
- inhibition at 10 µM (HS 578 T): < 1%
- inhibition at 10 µM (BT-549): < 1%
- inhibition at 10 µM (MDA-MB-468): < 1%
- inhibition at 10 µM (T-47D): 10.1%
- inhibition at 10 µM (MCF7): 9.59%
- inhibition at 10 µM (MDA-MB-231/ATCC): < 1%
- inhibition at 10 µM (NCI-H23): 4.49%
- inhibition at 10 µM (NCI-522): 22.6%
- inhibition at 10 µM (NCI-H226): 7.09%
- inhibition at 10 µM (NCI-H322M): < 1%
- inhibition at 10 µM (EXVX): < 1%
- inhibition at 10 µM (NCI-H460): < 1%
- inhibition at 10 µM (A549/ATCC): 8.95%
- inhibition at 10 µM (HOP-92): 7.05%
- inhibition at 10 µM (HOP-62): 13.2%
- inhibition at 10 µM (ACHN): < 1%
- inhibition at 10 µM (RXF 393): 36%
- inhibition at 10 µM (UO-31): 22.8%
- melting point: 187 to 189 °C

Structure (SMILES): c1cn2cc(-c3ccsc3)nc(-c3ccc4c(c3)ncn4C3CCCCC3)c2n1 [Compound 14, 8-(1-cyclohexyl-1H-benzo[d]imidazol-5-yl)-6-(thiophen-3-yl)imidazo[1,2-a]pyrazine]
- inhibition at 10 µM (HS 578 T): 6.34%
- inhibition at 10 µM (BT-549): 4.68%
- inhibition at 10 µM (MDA-MB-468): 0.73%
- inhibition at 10 µM (T-47D): > 50%
- inhibition at 10 µM (MCF7): 12%
- inhibition at 10 µM (MDA-MB-231/ATCC): 7.65%
- inhibition at 10 µM (NCI-H23): 8.6%
- inhibition at 10 µM (NCI-522): 10.4%
- inhibition at 10 µM (NCI-H226): < 1%
- inhibition at 10 µM (NCI-H322M): 1.19%
- inhibition at 10 µM (EXVX): < 1%
- inhibition at 10 µM (NCI-H460): 7.12%
- inhibition at 10 µM (A549/ATCC): < 1%
- inhibition at 10 µM (HOP-92): 25%
- inhibition at 10 µM (HOP-62): 7.41%
- inhibition at 10 µM (ACHN): 4.32%
- inhibition at 10 µM (RXF 393): < 1%
- inhibition at 10 µM (UO-31): 23.1%
- melting point: 185 to 188 °C

Structure (SMILES): c1csc(-c2cn3ccnc3c(-c3ccc4c(c3)ncn4C3CCCCC3)n2)c1 [Compound 22, 8-(1-cyclohexyl-1H-benzo[d]imidazol-5-yl)-6-(thiophen-2-yl)imidazo[1,2-a]pyrazine]
- inhibition at 10 µM (HS 578 T): < 1%
- inhibition at 10 µM (BT-549): < 1%
- inhibition at 10 µM (MDA-MB-468): 28.3%
- inhibition at 10 µM (T-47D): 37.3%
- inhibition at 10 µM (MCF7): 34%
- inhibition at 10 µM (MDA-MB-231/ATCC): 7.47%
- inhibition at 10 µM (NCI-H23): 5.56%
- inhibition at 10 µM (NCI-522): 14.6%
- inhibition at 10 µM (NCI-H226): < 1%
- inhibition at 10 µM (NCI-H322M): 0.45%
- inhibition at 10 µM (EXVX): 3.54%
- inhibition at 10 µM (NCI-H460): < 1%
- inhibition at 10 µM (A549/ATCC): 1.63%
- inhibition at 10 µM (HOP-92): < 1%
- inhibition at 10 µM (HOP-62): 0.44%
- inhibition at 10 µM (ACHN): < 1%
- inhibition at 10 µM (RXF 393): < 1%
- inhibition at 10 µM (UO-31): 16.4%
- melting point: 187 to 190 °C

Structure (SMILES): c1cn2cc(-c3ccc4c(c3)ncn4C3CCCCC3)nc(-c3ccc4c(c3)ncn4C3CCCCC3)c2n1 [Compound 30, 6,8-bis(1-cyclohexyl-1H-benzo[d]imidazol-5-yl)imidazo[1,2-a]pyrazine]
- inhibition at 10 µM (HS 578 T): 18.9%
- inhibition at 10 µM (BT-549): 5.9%
- inhibition at 10 µM (MDA-MB-468): 3.28%
- inhibition at 10 µM (T-47D): 34.7%
- inhibition at 10 µM (MCF7): 23.9%
- inhibition at 10 µM (MDA-MB-231/ATCC): 16.8%
- inhibition at 10 µM (NCI-H23): 4.61%
- inhibition at 10 µM (NCI-522): 17.7%
- inhibition at 10 µM (NCI-H226): 13.1%
- inhibition at 10 µM (NCI-H322M): < 1%
- inhibition at 10 µM (EXVX): 9.56%
- inhibition at 10 µM (NCI-H460): 1.35%
- inhibition at 10 µM (A549/ATCC): 4.93%
- inhibition at 10 µM (HOP-62): 20.8%
- inhibition at 10 µM (ACHN): 4.08%
- inhibition at 10 µM (RXF 393): 4.3%
- inhibition at 10 µM (UO-31): 26.8%
- melting point: 205 to 209 °C

Reference: article PMC7162861, “Synthesis, cytotoxicity, pharmacokinetic profile, binding with DNA and BSA of new imidazo[1,2-a]pyrazine-benzo[d]imidazol-5-yl hybrids” (Scientific Reports, 2020)
